Measured values taken from ChEMBL document CHEMBL4130388, “Recent advances of pyrazole-containing derivatives as anti-tubercular agents” (Eur J Med Chem, 2017).

Molecular target: T1, Enoyl-[acyl-carrier-protein] reductase [NADH] (Mycobacterium tuberculosis, UniProt P9WGR1)
T1 sequence (P9WGR1 whole entry): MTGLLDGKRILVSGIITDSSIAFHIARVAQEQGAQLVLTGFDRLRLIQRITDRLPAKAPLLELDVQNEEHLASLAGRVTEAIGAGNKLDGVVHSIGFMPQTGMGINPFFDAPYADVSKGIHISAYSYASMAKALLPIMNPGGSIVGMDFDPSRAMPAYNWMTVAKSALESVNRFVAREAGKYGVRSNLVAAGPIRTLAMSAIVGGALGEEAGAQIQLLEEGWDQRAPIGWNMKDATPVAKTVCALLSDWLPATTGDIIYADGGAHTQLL
Assay: Inhibition of Mycobacterium tuberculosis InhA using DDCoA as substrate in presence of NADH by fluorimetric method

Cc1cc(C)n(Cc2ccc(C(=O)NCc3ccc(F)cc3Cl)cc2)n1
IC50: 40 nM
